Earlier results as cited in patent US10058559B2, “Treatment or prevention of an intestinal disease or disorder” (The United States of America, as represented by the …, priority 2014, dated 2018).

What was measured:
GAK = target: T1, GAK (Homo sapiens, UniProt O14976); details: 185-kinase panel; cited from earlier work
T1 sequence (O14976 1-1311): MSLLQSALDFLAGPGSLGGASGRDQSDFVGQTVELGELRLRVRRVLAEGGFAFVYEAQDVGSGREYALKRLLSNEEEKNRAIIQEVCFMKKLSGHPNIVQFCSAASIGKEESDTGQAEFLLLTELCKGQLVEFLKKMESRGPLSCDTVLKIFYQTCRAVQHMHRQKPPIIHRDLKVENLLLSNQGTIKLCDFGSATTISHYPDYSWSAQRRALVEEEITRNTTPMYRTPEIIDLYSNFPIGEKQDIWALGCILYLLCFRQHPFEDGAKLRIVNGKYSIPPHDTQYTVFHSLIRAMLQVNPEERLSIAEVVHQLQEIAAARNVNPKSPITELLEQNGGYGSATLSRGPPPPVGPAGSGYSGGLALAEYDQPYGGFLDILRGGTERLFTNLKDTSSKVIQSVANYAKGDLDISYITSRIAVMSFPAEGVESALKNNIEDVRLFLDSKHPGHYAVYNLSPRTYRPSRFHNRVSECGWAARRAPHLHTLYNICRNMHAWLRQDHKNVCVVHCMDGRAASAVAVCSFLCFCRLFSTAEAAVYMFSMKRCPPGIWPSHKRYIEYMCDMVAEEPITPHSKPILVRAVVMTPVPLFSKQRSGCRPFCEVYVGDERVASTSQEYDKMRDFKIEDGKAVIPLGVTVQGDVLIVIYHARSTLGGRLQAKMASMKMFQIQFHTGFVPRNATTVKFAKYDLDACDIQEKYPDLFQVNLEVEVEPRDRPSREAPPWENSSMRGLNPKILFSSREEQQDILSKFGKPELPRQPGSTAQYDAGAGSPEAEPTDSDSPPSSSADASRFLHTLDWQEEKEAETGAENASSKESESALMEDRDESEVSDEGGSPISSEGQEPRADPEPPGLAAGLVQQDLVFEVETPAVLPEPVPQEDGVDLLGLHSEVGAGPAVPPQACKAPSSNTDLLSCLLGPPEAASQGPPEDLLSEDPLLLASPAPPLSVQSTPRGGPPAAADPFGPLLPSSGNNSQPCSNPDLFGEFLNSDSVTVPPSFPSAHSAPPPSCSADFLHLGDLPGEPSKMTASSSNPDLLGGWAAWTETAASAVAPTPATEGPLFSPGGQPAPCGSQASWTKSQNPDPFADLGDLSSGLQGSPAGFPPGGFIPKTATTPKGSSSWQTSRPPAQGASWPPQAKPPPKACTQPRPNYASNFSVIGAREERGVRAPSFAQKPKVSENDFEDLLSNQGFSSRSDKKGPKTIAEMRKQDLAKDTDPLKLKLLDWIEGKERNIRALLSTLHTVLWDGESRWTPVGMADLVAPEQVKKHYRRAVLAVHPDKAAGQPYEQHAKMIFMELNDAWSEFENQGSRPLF

PLK4 = target: T2, PLK4 (Homo sapiens, UniProt O00444); details: 185-kinase panel; cited from earlier work
T2 sequence (O00444 1-970): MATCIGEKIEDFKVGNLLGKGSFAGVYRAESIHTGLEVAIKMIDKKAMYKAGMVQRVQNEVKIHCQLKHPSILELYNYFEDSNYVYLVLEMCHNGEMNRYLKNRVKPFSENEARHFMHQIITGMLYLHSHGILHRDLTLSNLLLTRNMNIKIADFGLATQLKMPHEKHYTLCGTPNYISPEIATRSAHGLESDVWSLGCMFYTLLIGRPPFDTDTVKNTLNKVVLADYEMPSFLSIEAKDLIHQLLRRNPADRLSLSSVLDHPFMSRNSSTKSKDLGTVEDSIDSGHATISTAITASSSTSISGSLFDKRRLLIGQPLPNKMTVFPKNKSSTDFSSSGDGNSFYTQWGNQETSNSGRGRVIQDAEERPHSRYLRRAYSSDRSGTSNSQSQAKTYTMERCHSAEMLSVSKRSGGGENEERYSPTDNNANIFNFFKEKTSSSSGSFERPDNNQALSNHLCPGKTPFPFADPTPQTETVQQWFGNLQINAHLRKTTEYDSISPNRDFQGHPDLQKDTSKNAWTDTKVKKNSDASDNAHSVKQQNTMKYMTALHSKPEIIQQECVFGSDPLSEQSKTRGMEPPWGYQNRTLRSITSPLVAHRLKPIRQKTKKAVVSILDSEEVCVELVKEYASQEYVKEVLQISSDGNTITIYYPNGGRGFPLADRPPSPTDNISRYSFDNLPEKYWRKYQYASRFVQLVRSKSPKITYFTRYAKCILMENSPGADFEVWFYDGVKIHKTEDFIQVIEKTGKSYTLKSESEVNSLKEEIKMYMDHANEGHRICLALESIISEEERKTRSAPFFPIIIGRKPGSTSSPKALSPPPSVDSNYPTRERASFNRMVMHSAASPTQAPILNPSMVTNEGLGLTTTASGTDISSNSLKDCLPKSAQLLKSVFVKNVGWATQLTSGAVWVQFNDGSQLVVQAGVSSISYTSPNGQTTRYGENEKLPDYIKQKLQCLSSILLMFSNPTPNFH

TNK1 = target: T3, TNK1 (Homo sapiens, UniProt Q13470); details: 185-kinase panel; cited from earlier work
T3 sequence (Q13470 1-666): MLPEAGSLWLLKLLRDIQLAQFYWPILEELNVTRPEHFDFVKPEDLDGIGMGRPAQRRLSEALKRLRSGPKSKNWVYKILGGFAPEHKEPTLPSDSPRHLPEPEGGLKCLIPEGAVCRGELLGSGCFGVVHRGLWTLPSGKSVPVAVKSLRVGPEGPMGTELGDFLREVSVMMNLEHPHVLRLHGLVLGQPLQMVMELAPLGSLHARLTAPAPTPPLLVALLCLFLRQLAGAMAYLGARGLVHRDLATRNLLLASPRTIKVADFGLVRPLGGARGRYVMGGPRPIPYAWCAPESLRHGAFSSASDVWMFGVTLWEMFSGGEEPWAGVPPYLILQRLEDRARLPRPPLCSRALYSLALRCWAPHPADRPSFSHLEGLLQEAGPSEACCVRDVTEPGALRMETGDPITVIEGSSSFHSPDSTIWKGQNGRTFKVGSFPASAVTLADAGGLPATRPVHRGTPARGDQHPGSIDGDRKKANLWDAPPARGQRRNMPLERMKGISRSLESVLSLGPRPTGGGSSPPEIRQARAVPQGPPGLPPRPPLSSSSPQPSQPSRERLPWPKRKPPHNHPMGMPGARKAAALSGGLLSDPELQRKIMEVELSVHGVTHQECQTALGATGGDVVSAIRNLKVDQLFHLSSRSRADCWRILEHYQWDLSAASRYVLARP

[1] = in vivo; cited from earlier work
PIP4K2C = target: T4, PIP4K2C (Homo sapiens, UniProt Q8TBX8); details: 185-kinase panel; cited from earlier work
T4 sequence (Q8TBX8 1-421): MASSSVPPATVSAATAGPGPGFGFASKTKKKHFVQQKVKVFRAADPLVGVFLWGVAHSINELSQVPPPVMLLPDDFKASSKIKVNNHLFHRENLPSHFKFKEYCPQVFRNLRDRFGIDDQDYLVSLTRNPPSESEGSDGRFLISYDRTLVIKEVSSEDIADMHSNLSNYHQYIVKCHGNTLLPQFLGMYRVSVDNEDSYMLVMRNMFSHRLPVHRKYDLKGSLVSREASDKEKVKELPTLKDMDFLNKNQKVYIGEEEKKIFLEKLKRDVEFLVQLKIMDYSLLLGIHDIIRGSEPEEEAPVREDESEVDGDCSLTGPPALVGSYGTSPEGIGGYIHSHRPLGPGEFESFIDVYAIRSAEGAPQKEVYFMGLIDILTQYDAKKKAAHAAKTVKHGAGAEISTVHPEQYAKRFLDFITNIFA

CAMKK2 = CAMKK2 (Homo sapiens, UniProt Q96RR4); details: 185-kinase panel; cited from earlier work
Chain of CAMKK2 (Q96RR4 whole entry, species assumed): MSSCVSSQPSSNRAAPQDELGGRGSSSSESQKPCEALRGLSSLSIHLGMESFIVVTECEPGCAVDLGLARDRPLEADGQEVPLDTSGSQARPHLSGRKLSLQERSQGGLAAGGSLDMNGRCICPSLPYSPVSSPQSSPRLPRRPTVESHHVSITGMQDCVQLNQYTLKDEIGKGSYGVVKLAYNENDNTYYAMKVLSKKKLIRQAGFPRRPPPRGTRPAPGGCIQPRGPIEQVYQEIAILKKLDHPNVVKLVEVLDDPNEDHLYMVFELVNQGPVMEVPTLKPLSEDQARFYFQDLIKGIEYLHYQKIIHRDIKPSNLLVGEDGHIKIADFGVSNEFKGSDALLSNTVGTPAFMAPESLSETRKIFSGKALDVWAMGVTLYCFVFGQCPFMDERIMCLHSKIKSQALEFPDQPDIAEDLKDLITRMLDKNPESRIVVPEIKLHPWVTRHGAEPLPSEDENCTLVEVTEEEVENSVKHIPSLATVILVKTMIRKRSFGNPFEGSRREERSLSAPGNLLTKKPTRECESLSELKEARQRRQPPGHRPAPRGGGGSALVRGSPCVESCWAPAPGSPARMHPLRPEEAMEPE

In the case of COc1cc(N2CCOCC2)ccc1Nc1ncc(F)c(Nc2ccccc2NS(C)(=O)=O)n1.Cl [CZC-25146, N-(2-(5-Fluoro-2-(2-methoxy-4-morpholinophenylamino)pyrimidin-4-ylamino)phenyl)methanesulfonamide, HCl], the IC50 (GAK) is given as < 300 nM, the IC50 (PLK4) is given as < 300 nM and the IC50 (TNK1) is given as < 300 nM. For the same molecule, the oral bioavailability [1] was “orally bioavailable”, the IC50 (PIP4K2C) was < 300 nM and the IC50 (CAMKK2) was < 300 nM.
